Assays:
Assay type in all cases: cell-based
[1] = tested on: Escherichia coli ATCC 11229; experiment: Aqueous suspension (solution) test, antimicrobial vent gas bubbled through broth; details: E. coli ATCC 11229, POAA in CO2 gas bubbled through 10 ml bacteria solution
Procedure: (§1) Exposure times of 30 seconds and two minutes were tested.

[2] = tested on: Staphylococcus aureus ATCC 6538; experiment: as above; details: S. aureus ATCC 6538, POAA in CO2 gas bubbled through 10 ml bacteria solution
Procedure: as §1

[3] = tested on: Escherichia coli ATCC 11229; experiment: Hard surface test, stainless steel coupon exposed to vent gas in closed vessel; details: E. coli ATCC 11229, vent gas five minutes
Procedure: (§2) The efficacy of peroxyacetic acid antimicrobial delivered via CO2 gas was tested in a hard surface test against Escherichia coli and Staphylococcus aureus.
(§3) The coupons were exposed to the peroxyacetic acid antimicrobial vent gas for five minutes. Dry and wet methods were used for the testing. In the dry method, a dry film was generated on the coupon by adding a 20 μl suspension onto the coupon surface and drying the solution prior to the experiment. In the wet method, the 20 μl suspension was added to the coupon surface immediately before placing the coupon in the syringe and exposing it to the antimicrobial gas. After exposure to the antimicrobial gas for a set time period, the coupon was removed and placed in an appropriate neutralizer to stop the antimicrobial chemical activity. The bacteria remaining on the coupons were then incubated and the population reduction was determined.

[4] = tested on: Staphylococcus aureus ATCC 6538; experiment: as above; details: S. aureus ATCC 6538, vent gas five minutes
Procedure: as §2, §3

[5] = exposure 2 minutes, listed as peroxyacetic acid
[6] = dry method (dry bacterial film on coupon)
[7] = wet method (20 μl bacterial suspension on coupon)

Question: How did the “Log Reduction” value ([1]; exposure 30 seconds) turn out when `CC(=O)OO` [POAA, peroxyacetic acid] was run?
Answer: The value was 1.1 log.

Question: What about the “Log Reduction” value ([1]; exposure 2 minutes) of the same compound?
Answer: The value was 6.1 log.

Question: What about the “Log Reduction” value [1, 5] of the same compound?
Answer: The value was “greater than 6 log”.

Question: And the “Log Reduction” value ([2]; exposure 30 seconds)?
Answer: Its value is 2.5 log.

Question: And the “Log Reduction” value ([2]; exposure 2 minutes)?
Answer: The value was 6.3 log.

Question: And the “Log Reduction” value [2, 5]?
Answer: Its value is “greater than 6 log”.

Question: What about the “Log Reduction” value [3, 6] of the same compound?
Answer: The value was 6.5 log.

Question: And the “Log Reduction” value [3, 7]?
Answer: Its value is 6.5 log.

Question: What about the “Log Reduction” value [4, 6] of the same compound?
Answer: The value was 5.5 log.

Question: And the “Log Reduction” value [4, 7]?
Answer: Its value is 5.5 log.
